# Experimental data: patent US20250228239A1, “MOLECULES HAVING PESTICIDAL UTILITY, AND INTERMEDIATES, COMPOSITIONS, AND PROCESSES, RELATED THERETO” (priority 2024, published 2025)
# Like-named read-outs stand apart in the source and are kept apart here.
# Assays:
# [1] = tested on: Cabbage Looper (Trichoplusia ni, TRIPNI); assay: Bioassays on Cabbage Looper (CL), 128-well diet tray assay; format: in vivo; conditions: Trichoplusia ni
# Procedure, shortened: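 Activity is mean percent mortality over eight wells of second-instar larvae exposed to diet treated at 50 μg/cm^2 for 5–7 days at 25° C.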
# [2] = tested on: Beet Armyworm (Spodoptera exigua, LAPHEG); assay: Bioassays on Beet Armyworm (BAW), 128-well diet tray assay; format: in vivo; conditions: Spodoptera exigua
# Procedure, shortened: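 Diet-overlay assay: 50 μg/cm^2 compound applied in 90:10 acetone-water to artificial diet, allowed to dry, then infested with 1–5 L2 larvae/well; 8 wells/compound; covered, vented; 25° C., 14:10 L:D, 5–7 d; % mortality per well, averaged.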
# [3] = Cabbage Looper, Table ABC / ABC-DP rating, read-out: CL rating
# [4] = Beet Armyworm, Table ABC / ABC-DP rating, read-out: BAW rating
# [5] = Table ABC: Biological Results, species CL, read-out: CL
# [6] = Table ABC: Biological Results, species BAW, read-out: BAW
# [7] = Cabbage Looper, rating class, read-out: CL
# [8] = Beet Armyworm, rating class, read-out: BAW
smiles,measurement,setting,value
"O=C(NNC1CCC(F)(F)CC1)c1cc(NC(=O)[C@H]2[C@H](c3cc(Cl)cc(Cl)c3)C2(Cl)Cl)ccc1Cl (relative stereo) [F2569, trans-2,2-dichloro-N-(4-chloro-3-(2-(4,4-difluorocyclohexyl)hydrazine-1-carbonyl)phenyl)-3-(3,5-dichlorophenyl)cyclopropane-1-carboxamide]",mortality at 50 µg/cm2,"[1]; 168 h, second instar larvae, 50 μg/cm^2 of test molecule on artificial diet, 25° C., five to seven days, average of eight wells, read-out: CL % Control (or Mortality) rating",50 to 100%
same,pest or weed control at 50 µg/cm2,[1]; [3],50 to 100%
same,mortality at 50 µg/cm2,"[2]; 168 h, second instar larvae, 50 μg/cm^2 of test molecule on artificial diet, 25° C., five to seven days, average of eight wells, read-out: BAW % Control (or Mortality) rating",50 to 100%
same,pest or weed control at 50 µg/cm2,[2]; [4],50 to 100%
"O=C(Nc1ccc(F)cc1F)c1cc(NC(=O)[C@H]2[C@H](c3cc(Cl)cc(Cl)c3)C2(Cl)Cl)ccc1F (single isomer, unassigned) [F1375]",pest or weed control at 50 µg/cm2,[1]; [5],50 to 100%
same,pest or weed control at 50 µg/cm2,[2]; [6],50 to 100%
"O=C(Nc1cc(NC(=O)C(F)F)c(F)cc1F)c1cc(NC(=O)[C@H]2[C@H](c3ccc(Cl)c(Cl)c3)C2(Cl)Cl)cc(F)c1F [F1583, 5-((1R,3R)-2,2-Dichloro-3-(3,4-dichlorophenyl)cyclopropane-1-carboxamido)-N-(5-(2,2-difluoroacetamido)-2,4-difluorophenyl)-2,3-difluorobenzamide]",pest or weed control at 50 µg/cm2,[1]; [7],50 to 100%
same,pest or weed control at 50 µg/cm2,[2]; [8],50 to 100%
"O=C(Nc1c(F)ccc(NC(=O)c2cc(NC(=O)[C@H]3[C@H](c4ccc(F)c(C(F)(F)F)c4)C3(Cl)Cl)ccc2Cl)c1F)c1ccns1 [F1817, N-(3-(2-Chloro-5-((1R,3R)-2,2-dichloro-3-(4-fluoro-3-(trifluoromethyl)phenyl)cyclopropane-1-carboxamido)benzamido)-2,6-difluorophenyl)isothiazole-5-carboxamide]",pest or weed control at 50 µg/cm2,[1]; [3],50 to 100%
same,pest or weed control at 50 µg/cm2,[2]; [4],50 to 100%
"Nc1c(F)ccc(NC(=O)c2cc(NC(=O)[C@H]3[C@H](c4ccc(F)c(I)c4)C3(Cl)Cl)ccc2Cl)c1F (relative stereo) [F1622, trans-N-(3-Amino-2,4-difluorophenyl)-2-chloro-5-(2,2-dichloro-3-(4-fluoro-3-iodophenyl)cyclopropane-1-carboxamido)benzamide]",pest or weed control at 50 µg/cm2,[1]; [7],50 to 100%
same,pest or weed control at 50 µg/cm2,[2]; [8],50 to 100%
"O=C(Nc1ccc(F)c(NC(=O)C(F)(F)C(F)C(F)(F)F)c1F)c1cc(NC(=O)[C@H]2[C@H](c3ccc(F)c(C(F)(F)F)c3)C2(Cl)Cl)ccc1Cl (stereo partly drawn) [F1839, 2-Chloro-5-((1R,3R)-2,2-dichloro-3-(4-fluoro-3-(trifluoromethyl)phenyl)cyclopropane-1-carboxamido)-N-(2,4-difluoro-3-(2,2,3,4,4,4-hexafluorobutanamido)phenyl)benzamide]",pest or weed control at 50 µg/cm2,[1]; [3],50 to 100%
same,pest or weed control at 50 µg/cm2,[2]; [4],50 to 100%
"CC(=O)Nc1cc(NC(=O)c2cc(NC(=O)[C@H]3[C@H](c4cc(Cl)c(Cl)c(Cl)c4)C3(Cl)Cl)cc(F)c2F)c(F)cc1F [F1581, N-(5-Acetamido-2,4-difluorophenyl)-5-((1R,3R)-2,2-dichloro-3-(3,4,5-trichlorophenyl)cyclopropane-1-carboxamido)-2,3-difluorobenzamide]",pest or weed control at 50 µg/cm2,[1]; [7],50 to 100%
same,pest or weed control at 50 µg/cm2,[2]; [8],50 to 100%
"O=C(Nc1ccc(F)c(NC(=O)C2CCCOC2)c1F)c1cc(NC(=O)[C@H]2[C@H](c3ccc(F)c(C(F)(F)F)c3)C2(Cl)Cl)ccc1Cl (stereo partly drawn) [F1722, N-(3-(2-Chloro-5-((1R,3R)-2,2-dichloro-3-(4-fluoro-3-(trifluoromethyl)phenyl)cyclopropane-1-carboxamido)benzamido)-2,6-difluorophenyl)tetrahydro-2H-pyran-3-carboxamide]",pest or weed control at 50 µg/cm2,[1]; [7],50 to 100%
same,pest or weed control at 50 µg/cm2,[2]; [8],50 to 100%
"O=C(Nc1cc(NC(=O)C(F)F)c(F)cc1F)c1cc(NC(=O)[C@H]2[C@H](c3ccc(F)c(Cl)c3)C2(Cl)Cl)cc(F)c1Cl [F1400, 2-Chloro-5-((1R,3R)-2,2-dichloro-3-(3-chloro-4-fluorophenyl)cyclopropane-1-carboxamido)-N-(5-(2,2-difluoroacetamido)-2,4-difluorophenyl)-3-fluorobenzamide]",pest or weed control at 50 µg/cm2,[1]; [7],50 to 100%
same,pest or weed control at 50 µg/cm2,[2]; [8],50 to 100%
"Cc1cc(NC(=O)C(Cl)(Cl)Cl)ccc1NC(=O)c1cc(NC(=O)[C@H]2[C@H](c3ccc(Cl)c(Cl)c3)C2(Cl)Cl)ccc1Cl (relative stereo) [F1060, trans-2-Chloro-5-(2,2-dichloro-3-(3,4-dichlorophenyl)cyclopropane-1-carboxamido)-N-(2-methyl-4-(2,2,2-trichloroacetamido)phenyl)benzamide]",pest or weed control at 50 µg/cm2,[1]; [5],50 to 100%
same,pest or weed control at 50 µg/cm2,[2]; [6],50 to 100%
"CCO[C@@H](C)C(=O)Nc1c(F)ccc(NC(=O)c2cc(NC(=O)[C@H]3[C@H](c4ccc(Cl)c(Cl)c4)C3(Cl)Cl)ccc2Cl)c1F [F1733, 2-Chloro-5-((1R,3R)-2,2-dichloro-3-(3,4-dichlorophenyl)cyclopropane-1-carboxamido)-N-(3-((S)-2-ethoxypropanamido)-2,4-difluorophenyl)benzamide]",pest or weed control at 50 µg/cm2,[1]; [7],50 to 100%
same,pest or weed control at 50 µg/cm2,[2]; [8],50 to 100%
"O=C(COC(F)(F)F)Nc1c(F)ccc(NC(=O)c2cc(NC(=O)[C@H]3[C@H](c4cc(F)cc(C(F)(F)F)c4)C3(Cl)Cl)ccc2Cl)c1F [F1772, 2-Chloro-5-((1R,3R)-2,2-dichloro-3-(3-fluoro-5-(trifluoromethyl)phenyl)cyclopropane-1-carboxamido)-N-(2,4-difluoro-3-(2-(trifluoromethoxy)acetamido)phenyl)benzamide]",pest or weed control at 50 µg/cm2,[1]; [3],50 to 100%
same,pest or weed control at 50 µg/cm2,[2]; [4],50 to 100%
"O=C(Nc1ccc(F)cc1F)c1cc(NC(=O)[C@H]2[C@H](c3ccc(F)c(Cl)c3)C2(Cl)Cl)cc(Cl)c1F (relative stereo) [F1196, trans-3-Chloro-5-(2,2-dichloro-3-(3-chloro-4-fluorophenyl)cyclopropane-1-carboxamido)-N-(2,4-difluorophenyl)-2-fluorobenzamide]",pest or weed control at 50 µg/cm2,[1]; [5],50 to 100%
same,pest or weed control at 50 µg/cm2,[2]; [6],50 to 100%
"O=C(Nc1ccc(F)cc1F)c1cc(NC(=O)[C@H]2[C@H](c3cc(F)c(F)c(F)c3)C2(Cl)Cl)ccc1Cl [F1693, 2-Chloro-5-((1R,3R)-2,2-dichloro-3-(3,4,5-trifluorophenyl)cyclopropane-1-carboxamido)-N-(2,4-difluorophenyl)benzamide]",pest or weed control at 50 µg/cm2,[1]; [7],50 to 100%
same,pest or weed control at 50 µg/cm2,[2]; [8],50 to 100%
"CC(CC(F)(F)F)C(=O)Nc1c(F)ccc(NC(=O)c2cc(NC(=O)[C@H]3[C@H](c4ccc(Cl)c(Cl)c4)C3(Cl)Cl)ccc2Cl)c1F (stereo partly drawn) [F1862, 2-Chloro-5-((1R,3R)-2,2-dichloro-3-(3,4-dichlorophenyl)cyclopropane-1-carboxamido)-N-(2,4-difluoro-3-(4,4,4-trifluoro-2-methylbutanamido)phenyl) benzamide]",pest or weed control at 50 µg/cm2,[1]; [3],50 to 100%
same,pest or weed control at 50 µg/cm2,[2]; [4],50 to 100%
"CCNC(=O)c1cc(NC(=O)[C@H]2[C@H](c3ccc(F)c(Cl)c3)C2(Cl)Cl)cc(C(F)(F)F)c1Cl (relative stereo) [F2053, trans-2-Chloro-5-(2,2-dichloro-3-(3-chloro-4-fluorophenyl)cyclopropane-1-carboxamido)-N-ethyl-3-(trifluoromethyl)benzamide]",pest or weed control at 50 µg/cm2,[1]; [3],50 to 100%
same,pest or weed control at 50 µg/cm2,[2]; [4],50 to 100%
"Nc1cc(NC(=O)c2cc(NC(=O)[C@H]3[C@H](c4cc(Cl)c(Cl)c(Cl)c4)C3(Cl)Cl)cc(F)c2Cl)c(F)cc1F [F1397, N-(5-Amino-2,4-difluorophenyl)-2-chloro-5-((1R,3R)-2,2-dichloro-3-(3,4,5-trichlorophenyl)cyclopropane-1-carboxamido)-3-fluorobenzamide]",pest or weed control at 50 µg/cm2,[1]; [7],50 to 100%
same,pest or weed control at 50 µg/cm2,[2]; [8],50 to 100%
"O=C(Nc1ccc(F)c(NC(=O)C(F)(F)F)c1F)c1cc(NC(=O)[C@H]2[C@H](c3ccc(F)c(Cl)c3)C2(Cl)Cl)cc(F)c1Cl [F1291, 2-Chloro-5-((1R,3R)-2,2-dichloro-3-(3-chloro-4-fluorophenyl)cyclopropane-1-carboxamido)-N-(2,4-difluoro-3-(2,2,2-trifluoroacetamido)phenyl)-3-fluorobenzamide]",pest or weed control at 50 µg/cm2,[1]; [5],50 to 100%
same,pest or weed control at 50 µg/cm2,[2]; [6],50 to 100%
"O=C(Nc1c(F)ccc(NC(=O)C(F)(F)F)c1F)c1cc(NC(=O)[C@H]2[C@H](c3cc(Cl)cc(Cl)c3)C2(Cl)Cl)cc(F)c1Cl [F1340, 2-Chloro-5-((1R,3R)-2,2-dichloro-3-(3,5-dichlorophenyl)cyclopropane-1-carboxamido)-N-(2,6-difluoro-3-(2,2,2-trifluoroacetamido)phenyl)-3-fluorobenzamide]",pest or weed control at 50 µg/cm2,[1]; [5],50 to 100%
same,pest or weed control at 50 µg/cm2,[2]; [6],50 to 100%
"CC(F)(F)CCC(=O)Nc1c(F)ccc(NC(=O)c2cc(NC(=O)[C@H]3[C@H](c4ccc(F)c(Cl)c4)C3(Cl)Cl)ccc2Cl)c1F [F1864, 2-Chloro-5-((1R,3R)-2,2-dichloro-3-(3-chloro-4-fluorophenyl)cyclopropane-1-carboxamido)-N-(3-(4,4-difluoropentanamido)-2,4-difluorophenyl)benzamide]",pest or weed control at 50 µg/cm2,[1]; [3],50 to 100%
same,pest or weed control at 50 µg/cm2,[2]; [4],50 to 100%
"O=C(Nc1c(F)ccc(NC(=O)C(F)F)c1F)c1cc(NC(=O)[C@H]2[C@H](c3ccc(Cl)c(Cl)c3)C2(Cl)Cl)cc(F)c1Cl [F1345, 2-Chloro-5-((1R,3R)-2,2-dichloro-3-(3,4-dichlorophenyl)cyclopropane-1-carboxamido)-N-(3-(2,2-difluoroacetamido)-2,6-difluorophenyl)-3-fluorobenzamide]",pest or weed control at 50 µg/cm2,[1]; [5],50 to 100%
same,pest or weed control at 50 µg/cm2,[2]; [6],50 to 100%
